Experimental data reported in patent US20250090699A1, “FAP TARGETING CYCLIC PEPTIDES AND CONJUGATES THEREOF” (Novartis AG, priority 2023, published 2025).
Structures can show the parent of a compound that is named as a salt. Starred links: 1 amine or outer side, 2 acyl side, 3 side chain; linkers in the order of their positions; H or OH if unused. Non-standard residues stand in square brackets, D forms with d. Residues, ends and D or L forms follow the SMILES beside them. Groups on a side chain read outwards from the residue. *: point of attachment. F4(amMeBAlaDOTALu) = lutetium complex of (S)-2,2',2''-(10-(2-((3-((4-(2-amino-2-carboxyethyl)benzyl)amino)-3-oxopropyl)(methyl)amino)-2-oxoethyl)-1,4,7,10-tetraazacyclododecane-1,4,7-triyl)triacetic acid (Phe with 4-aminomethyl-N-methyl-βAla, CN(CCC(=O)NCc1ccc(C[C@H](N[*:1])C(=O)[*:2])cc1)C(=O)CN1CCN(CC(=O)[O-])CCN(CC(=O)[O-])CCN(CC(=O)[O-])CC1.[Lu+3]; F(4OEtNHDOTA-Ga) = gallium complex of (S)-2,2',2''-(10-(2-((2-(4-(2-amino-2-carboxyethyl)phenoxy)ethyl)amino)-2-oxoethyl)-1,4,7,10-tetraazacyclododecane-1,4,7-triyl)triacetic acid (Phe with 4-O-ethylamino-DOTA-Ga), O=C([O-])CN1CCN(CC(=O)[O-])CCN(CC(=O)NCCOc2ccc(C[C@H](N[*:1])C(=O)[*:2])cc2)CCN(CC(=O)[O-])CC1.[Ga+3]; F(4amPEG2NH-NOTA-Ga) = gallium complex of (S)-2,2'-(7-(1-(4-(2-amino-2-carboxyethyl)phenyl)-3,12-dioxo-5,8-dioxa-2,11-diazatridecan-13-yl)-1,4,7-triazonane-1,4-diyl)diacetic acid (Phe with 4-aminomethyl-PEG2-NOTA-Ga), O=C([O-])CN1CCN(CC(=O)[O-])CCN(CC(=O)NCCOCCOCC(=O)NCc2ccc(C[C@H](N[*:1])C(=O)[*:2])cc2)CC1.[Ga+3]; COpipzaa = 4-(carboxymethyl)piperazine-1-carbonyl, O=C(O)CN1CCN(C(=O)*)CC1; hS(Pr) = O-propyl-L-homoserine, CCCOCC[C@H](N[*:1])C(=O)[*:2]; NODAGA = O=C(O)CN1CCN(CC(=O)O)CCN(C(CCC(=O)*)C(=O)O)CC1; Trp(6-OH) = N[C@@H](Cc1c[nH]c2cc(O)ccc12)C(=O)O; Phe(4-CH2NH2) = NCc1ccc(C[C@H](N)C(=O)O)cc1; Piperazinyl(4-CH2COOH) = O=C(O)CN1CCN(*)CC1; X7 = CCCCC[C@@H](O)[C@H](N[*:1])C(=O)[*:2]; NMeF = CN[C@@H](Cc1ccccc1)C(=O)O; Aoc(2) = CCCCCC[C@H](N)C(=O)O; d(αMeP) = C[C@]1(C(=O)O)CCCN1; Ahp(2) = CCCCC[C@H](N)C(=O)O; hSer = N[C@@H](CCO)C(=O)O; Dab = NCC[C@H](N)C(=O)O; AEEA = NCCOCCOCC(=O)O; CO = O=C([*:1])[*:2]; Sar = CNCC(=O)O; Propyl = CCC*

Tests used:
[1] = target: T1, mouse FAP (Mus musculus, UniProt P97321); test: Enzymatic FAP competition assay (Z-Gly-Pro-AMC fluorescence), mouse FAP; format: biochemical; conditions: read-out: m. FAP, Enz., IC50
T1 construct: biotinylated His, Avi tag, mouse FAP (26-761, FAP-M82Q5); His; Avi tag (biotinylated); purchased AcroBiosystems FAP-M82Q5
T1 sequence (P97321 26-761): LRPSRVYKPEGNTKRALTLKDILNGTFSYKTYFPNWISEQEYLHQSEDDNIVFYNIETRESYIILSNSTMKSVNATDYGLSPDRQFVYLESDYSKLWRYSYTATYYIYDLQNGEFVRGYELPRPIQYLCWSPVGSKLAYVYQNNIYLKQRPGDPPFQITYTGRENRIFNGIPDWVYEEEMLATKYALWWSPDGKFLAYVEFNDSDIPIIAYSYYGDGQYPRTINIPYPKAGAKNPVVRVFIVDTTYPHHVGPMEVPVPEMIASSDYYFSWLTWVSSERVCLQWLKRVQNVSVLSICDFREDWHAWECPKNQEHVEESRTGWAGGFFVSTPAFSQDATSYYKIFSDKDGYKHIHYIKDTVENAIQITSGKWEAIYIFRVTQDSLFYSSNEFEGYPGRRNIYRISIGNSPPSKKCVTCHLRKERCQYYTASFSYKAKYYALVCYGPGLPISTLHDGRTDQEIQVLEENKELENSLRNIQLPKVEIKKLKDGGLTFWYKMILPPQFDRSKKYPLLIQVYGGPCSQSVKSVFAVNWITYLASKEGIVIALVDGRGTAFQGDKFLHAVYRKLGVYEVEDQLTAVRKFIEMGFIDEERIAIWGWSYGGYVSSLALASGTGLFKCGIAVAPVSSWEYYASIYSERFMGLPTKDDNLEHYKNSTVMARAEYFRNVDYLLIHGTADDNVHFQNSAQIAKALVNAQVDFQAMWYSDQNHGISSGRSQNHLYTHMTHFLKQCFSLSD
Outline: (§1)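 IC50 values come from curve fitting of duplicate % inhibition data on AMC fluorescence (ex 380, em 460 nm) after 4 h at 22-24° C with 50 μM Z-Gly-Pro-AMC. Beforehand, peptides up to 1 μM (14 levels) sat 24 h with 0.01 nM human (26-760) or mouse (26-761) tagged FAP in phosphate buffer pH 7.5, NaCl, Tween20, 1% DMSO.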

[2] = target: T1, mouse FAP; test: Surface plasmon resonance (SPR) for peptide affinity, mouse FAP; format: binding
Outline: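 KD values come from a 1:1 kinetic fit of single-cycle SPR data: 8 peptide concentrations, 25 °C, 30 μL/min, HEPES-buffered saline pH 7.6 with 2% DMSO. Targets were His/Avi-tagged human (26-760) or mouse (26-761) FAP, amine-coupled to CM5 or held on a CAPture chip.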

[3] = target: T2, human FAP (Homo sapiens, UniProt Q12884); test: Enzymatic FAP competition assay (Z-Gly-Pro-AMC fluorescence), human FAP; format: biochemical; conditions: read-out: h. FAP, Enz., IC50
T2 construct: the biotinylated His, Avi tag, human FAP (26-760, FAP-H82Q6); His; Avi tag (biotinylated); purchased AcroBiosystems FAP-H82Q6
T2 sequence (Q12884 26-760): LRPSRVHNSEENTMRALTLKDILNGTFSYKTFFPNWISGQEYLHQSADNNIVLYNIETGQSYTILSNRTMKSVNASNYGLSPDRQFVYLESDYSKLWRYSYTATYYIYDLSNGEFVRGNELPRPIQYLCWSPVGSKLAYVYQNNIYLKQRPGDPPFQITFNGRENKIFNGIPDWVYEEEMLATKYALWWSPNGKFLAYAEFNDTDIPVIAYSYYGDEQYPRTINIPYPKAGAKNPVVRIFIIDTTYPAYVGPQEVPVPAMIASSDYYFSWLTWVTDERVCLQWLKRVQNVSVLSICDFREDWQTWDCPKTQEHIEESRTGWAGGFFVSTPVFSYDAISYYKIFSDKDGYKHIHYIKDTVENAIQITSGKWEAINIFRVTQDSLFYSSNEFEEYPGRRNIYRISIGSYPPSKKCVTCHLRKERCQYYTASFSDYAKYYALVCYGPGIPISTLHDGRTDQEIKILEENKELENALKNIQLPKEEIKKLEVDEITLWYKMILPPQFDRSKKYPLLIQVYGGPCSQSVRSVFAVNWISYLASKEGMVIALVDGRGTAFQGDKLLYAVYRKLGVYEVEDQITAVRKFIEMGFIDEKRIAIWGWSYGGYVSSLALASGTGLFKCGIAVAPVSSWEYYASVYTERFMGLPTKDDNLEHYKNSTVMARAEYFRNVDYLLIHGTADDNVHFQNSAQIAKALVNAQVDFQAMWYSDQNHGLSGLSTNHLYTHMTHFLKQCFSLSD
Outline: as §1

Molecule	IC50 [1] [nM]	Kd [2] [nM]	IC50 [3] [nM]
CCCCC[C@@H]1NC(=O)[C@H](Cc2ccc(O)cc2)NC(=O)[C@H](Cc2ccccc2)N(C)C(=O)CNC(=O)CNC(=O)[C@H]2CCCN2C(=O)[C@H](CCO)NC(=O)[C@H](Cc2ccc(O)cc2)NC(=O)CNC(=O)[C@H](Cc2c[nH]c3ccccc23)NC1=O [Example A57, Gly-Gly-NMePhe-Tyr-Ahp-Trp-Gly-Tyr-hSer-D-Pro] (cyclo([Ahp(2)]WGY[hSer][dP]GG[NMeF]Y))	25	19	6.6
Gly-Gly-NMePhe-F(4OEtNHDOTA-Ga)-Ahp-Trp-Gly-Tyr-Asp-D-Pro (cyclo(GG[NMeF][F(4OEtNHDOTA-Ga)][Ahp(2)]WGYD[dP]); also: Ga complex of DOTA) [Example C51]	0.058	0.026	0.03
CCCCC[C@@H]1NC(=O)[C@H](Cc2ccc(O)cc2)NC(=O)[C@H](Cc2ccccc2)N(C)C(=O)CNC(=O)CN(C)C(=O)[C@H]2CCCN2C(=O)[C@H](CC(=O)O)NC(=O)[C@H](Cc2ccc(O)cc2)NC(=O)CNC(=O)[C@H](Cc2c[nH]c3ccccc23)NC1=O [Example A73, 2-((9S,12S,15S,18S,24S,27S,32aR)-18-((1H-indol-3-yl)methyl)-9-benzyl-12,24-bis(4-hydroxybenzyl)-2,8-dimethyl-1,4,7,10,13,16,19,22,25,28-decaoxo-15-pentyldotriacontahydropyrrolo[1,2-a][1,4,7,10,13,16,19,22,25,28]decaazacyclotriacontin-27-yl)acetic acid] (cyclo([Ahp(2)]WGYD[dP][Sar]G[NMeF]Y))	0.101	0.081	0.028
CCCCC[C@@H](O)[C@@H]1NC(=O)[C@H](Cc2ccc(O)cc2)NC(=O)[C@H](Cc2ccccc2)N(C)C(=O)CNC(=O)CNC(=O)[C@H]2CCCN2C(=O)[C@H](CC(=O)O)NC(=O)[C@H](Cc2ccc(O)cc2)NC(=O)CNC(=O)[C@H](Cc2c[nH]c3ccccc23)NC1=O [Example A34, Gly-Gly-NMePhe-Tyr-Aoc(3R-OH)-Trp-Gly-Tyr-Asp-D-Pro] (cyclo(D[dP]GG[NMeF]Y[X7]WGY))	0.4	0.25	0.055
CCCCCC[C@@H]1NC(=O)[C@H](Cc2ccc(O)cc2)NC(=O)[C@H](Cc2ccccc2)N(C)C(=O)CNC(=O)[C@H](CCCCN)NC(=O)[C@H]2CCCN2C(=O)[C@H](CC(=O)O)NC(=O)[C@H](Cc2ccc(O)cc2)NC(=O)CNC(=O)[C@H](Cc2c[nH]c3ccccc23)NC1=O [Example A31, Lys-Gly-NMePhe-Tyr-Aoc-Trp-Gly-Tyr-Asp-D-Pro, TFA salt] (cyclo([Aoc(2)]WGYD[dP]KG[NMeF]Y))	0.158	0.106	0.04
CCCCC[C@@H]1NC(=O)[C@H](Cc2ccc(O)cc2)NC(=O)[C@H](Cc2ccccc2)NC(=O)[C@H](CCC(=O)O)NC(=O)[C@H](CCCCN)NC(=O)[C@H]2CCCN2C(=O)[C@H](CC(=O)O)NC(=O)[C@H](Cc2ccc(O)cc2)NC(=O)CNC(=O)[C@H](Cc2c[nH]c3ccccc23)NC1=O [Example A20, Lys-Glu-Phe-Tyr-Ahp-Trp-Gly-Tyr-Asp-D-Pro] (cyclo([Ahp(2)]WGYD[dP]KEFY))	8.7	8.7	2.6
CCCOCC[C@@H]1NC(=O)[C@H](Cc2ccc(CNC(=O)COCCOCCNC(=O)CCC(C(=O)O)N3CCN(CC(=O)O)CCN(CC(=O)O)CC3)cc2)NC(=O)[C@H](Cc2ccccc2)N(C)C(=O)CNC(=O)CNC(=O)[C@H]2CCCN2C(=O)[C@H](CC(=O)O)NC(=O)[C@H](CCCCNC(=O)N2CCN(CC(=O)O)CC2)NC(=O)CNC(=O)[C@H](Cc2c[nH]c3ccccc23)NC1=O (stereo partly drawn) [Example B33, Gly-Gly-NMePhe-F(4amPEG2NHNODAGA)-hS(pr)-Trp-Gly-K(COpipzaa)-Asp-D-Pro] (cyclo(D[dP]GG[NMeF][Phe(4-CH2NH2)]([AEEA-NODAGA])[hSer](Propyl)WGK([CO-Piperazinyl(4-CH2COOH)])))	0.039	< 0.034	0.015
CCCCC[C@@H]1NC(=O)[C@H](Cc2ccc(O)cc2)NC(=O)[C@H](Cc2ccccc2)N(C)C(=O)CNC(=O)[C@H](CCCCN)NC(=O)[C@H]2CCCN2C(=O)[C@H](CC(=O)O)NC(=O)[C@H](Cc2ccc(O)cc2)NC(=O)CNC(=O)[C@H](Cc2c[nH]c3cc(O)ccc23)NC1=O [Example A24, Lys-Gly-NMePhe-Tyr-Ahp-W(6OH)-Gly-Tyr-Asp-D-Pro, TFA salt] (cyclo([Ahp(2)][Trp(6-OH)]GYD[dP]KG[NMeF]Y))	1.3	0.85	0.37
CCCCC[C@@H]1NC(=O)[C@H](Cc2ccc(O)cc2)NC(=O)[C@H](Cc2ccccc2)N(C)C(=O)CNC(=O)CNC(=O)[C@H]2CCCN2C(=O)[C@H](CCCCNC(C)=O)NC(=O)[C@H](Cc2ccc(O)cc2)NC(=O)CNC(=O)[C@H](Cc2c[nH]c3ccccc23)NC1=O [Example A55, Gly-Gly-NMePhe-Tyr-Ahp-Trp-Gly-Tyr-K(Ac)-D-Pro] (cyclo([Ahp(2)]WGYK(Ac)[dP]GG[NMeF]Y))	84	135	24
Gly-Gly-NMePhe-F4(amMeBAlaDOTALu)-Ahp-Trp-Gly-Tyr-Asp-D-Pro (cyclo(GG[NMeF][F4(amMeBAlaDOTALu)][Ahp(2)]WGYD[dP]); also: Lu complex) [Example C11]	0.024	0.028	0.009
CCCCC[C@@H]1NC(=O)[C@H](Cc2ccc(O)cc2)NC(=O)[C@H](Cc2ccccc2)N(C)C(=O)CNC(=O)CNC(=O)[C@@]2(C)CCCN2C(=O)[C@H](CC(=O)O)NC(=O)[C@H](Cc2ccc(O)cc2)NC(=O)CNC(=O)[C@H](Cc2c[nH]c3ccccc23)NC1=O [Example A70, Gly-Gly-NMePhe-Tyr-Ahp-Trp-Gly-Tyr-Asp-D-aMeP] (cyclo([Ahp(2)]WGYD[d(αMeP)]GG[NMeF]Y))	0.116	0.104	0.036
Gly-Gly-NMePhe-F(4amPEG2NH-NOTA-Ga)-hS(Pr)-Trp-Gly-K(COpipzaa)-Asp-D-Pro (cyclo(GG[NMeF][F(4amPEG2NH-NOTA-Ga)][hS(Pr)]WGK(COpipzaa)D[dP]); also: Ga complex) [Example C41]	0.031	< 0.043	0.013
CCCCC[C@@H]1NC(=O)[C@H](Cc2ccc(O)cc2)NC(=O)[C@H](Cc2ccccc2)N(C)C(=O)CNC(=O)CNC(=O)[C@H]2CCCN2C(=O)[C@H](CC(=O)O)NC(=O)[C@H](CCNC(=O)N2CCN(CC(=O)O)CC2)NC(=O)CNC(=O)[C@H](Cc2c[nH]c3ccccc23)NC1=O [Example A5, Gly-Gly-NMePhe-Tyr-Ahp-Trp-Gly-Dab(COPipzaa)-Asp-D-Pro] (cyclo([Ahp(2)]WG[Dab]([CO-Piperazinyl(4-CH2COOH)])D[dP]GG[NMeF]Y))	0.5	0.62	0.07
